The source made the active and inactive calls. The calls are words filed in the database; no cut-off is given here.
Experiments:
[1] = Cytotoxicity against African green monkey Vero cells incubated for 24 hrs by neutral red uptake assay; assay type: toxicity, cell-based; conditions: chlorocebus sabaeus; for MNTC at 24 h: read-out: MTD
[2] = system: Mus musculus; experiment: Toxicity in Balb/c mouse at 2 mM, ip measured after 0 to 14 days; assay type: organism-based; conditions: in vivo, 2000 µM
[3] = target: T1, Shiga toxin subunit A (Shigella dysenteriae) (UniProt Q9FBI2)
T1 sequence (whole entry): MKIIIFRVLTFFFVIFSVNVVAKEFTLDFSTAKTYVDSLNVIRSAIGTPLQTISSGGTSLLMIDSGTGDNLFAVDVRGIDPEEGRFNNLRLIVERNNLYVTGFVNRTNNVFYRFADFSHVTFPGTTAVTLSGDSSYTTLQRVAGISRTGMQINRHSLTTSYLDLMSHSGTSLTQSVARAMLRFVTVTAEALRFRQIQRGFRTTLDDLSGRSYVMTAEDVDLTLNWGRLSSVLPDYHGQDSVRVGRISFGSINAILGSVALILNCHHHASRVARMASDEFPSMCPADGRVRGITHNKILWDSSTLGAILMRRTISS

[4] = Inhibition of Shigella dysenteriae type 2 Shiga toxin in African green monkey Vero cells assessed as inhibition of Stx-induced cytotoxicity incubated for 10 hrs by MTS/PMS assay; assay type: cell-based
[5] = system: Mus musculus; experiment: Inhibition of Shigella dysenteriae Shiga toxin-induced mortality in Balb/c mouse exposed to 5 x LD50 Shigella toxin assessed as increase in mouse survival at 2 mM, ip preincubated with Stx for 1 hr measured after 0 to 14 days; assay type: functional, organism-based
[6] = system: Mus musculus; experiment: Inhibition of Shigella dysenteriae Shiga toxin-induced mortality in Balb/c mouse exposed to 5 x LD50 Shigella toxin assessed as reduction in symptomatic effects of toxin at 2 mM, ip preincubated with Stx for 1 hr measured after 0 to 14 days; assay type: functional, organism-based
[7] = system: Mus musculus; experiment: Inhibition of Shigella dysenteriae Shiga toxin-induced mortality in Balb/c mouse exposed to 5 x LD50 Shigella toxin assessed as increase in mouse survival at 2 mM, ip dosed 1 hr before toxin injection measured after 24 to 48 hrs; assay type: functional, organism-based
[8] = system: Mus musculus; experiment: Inhibition of Shigella dysenteriae Shiga toxin-induced mortality in Balb/c mouse exposed to 5 x LD50 Shigella toxin assessed as increase in mouse survival at 2 mM, ip dosed 1 after toxin injection measured after 24 to 48 hrs; assay type: functional, organism-based

With `Nc1nc2nc[nH]c2c(=O)[nH]1` [GUANINE] the CC50 at 24 h [1] was 136 µM, the MNTC at 24 h [1] was 125 µM and the Activity [2] was “Non-Toxic”.

Compound `Nc1nc(N)c2[nH]cnc2n1` [2,6-DIAMINOPURINE] has an MNTC at 24 h [1] of 9.3 µM.

With `Oc1ncnc2[nH]ncc12` [ALLOPURINOL] the CC50 at 24 h [1] was 428 µM, the MNTC at 24 h [1] was 250 µM and the Activity [2] was “Non-Toxic”. The ΔTm [3] was 3.75 °C.

`c1ccc(SCCNCCN2CCCC2)cc1` gave an MNTC at 24 h [1] of 63.3 µM and an IC50 [4] of 25 µM.

Compound `O=C(/C=C/c1cccs1)c1ccccc1O` has an MNTC at 24 h [1] of 17 µM.

With `O=C(NCCNCCSc1ccccc1)c1ccc([N+](=O)[O-])cc1` the inhibition [5] was “Active”, the CC50 at 24 h [1] was 177 µM and the MNTC at 24 h [1] was 15 µM. The inhibition [6] was “Active”, the inhibition [7] was “Active” and the inhibition [8] was “Active”. For the same compound, the Activity [2] was “Non-Toxic”.

For `Nc1ncc2[nH]cnc2n1` [2-AMINOPURINE], the MNTC at 24 h [1] was 125 µM.

In the case of `Nc1ncnc2c1ncn2[C@@H]1O[C@H](COP(=O)(O)O)[C@@H](O)[C@H]1O` [ADENOSINE PHOSPHATE], the MNTC at 24 h [1] is reported as 75 µM.

In the case of `CCCSCCNCCNC(=O)/C=C/c1ccccc1`, the inhibition [5] is reported as “Active”, the CC50 at 24 h [1] is reported as 123 µM and the MNTC at 24 h [1] is reported as 38 µM. For the same compound, the inhibition [6] was “Active”, the inhibition [7] was “Active” and the inhibition [8] was “Active”. The Activity [2] was “Non-Toxic”.

`O=C(/C=C/c1ccccc1)Oc1c(-c2ccccc2)oc2ccccc2c1=O` gave an MNTC at 24 h [1] of 64 µM.

With `O=C(NCCNCCSc1ccccc1)C1CCCCC1` the MNTC at 24 h [1] was 38 µM.

`S=C1N=CN=C2NC=NC12` (centres undefined) showed an MNTC at 24 h [1] of 18.7 µM.

In the case of `Nc1nc2[nH]cnc2c(=O)[nH]1`, the ΔTm [3] is reported as 4.45 °C.

For `COc1ccc(/C=C/C(=O)c2ccccc2O)cc1`, the MNTC at 24 h [1] was 7.35 µM.

For `Nc1ncnc2c1ncn2[C@@H]1O[C@H](CO)[C@@H](O)[C@H]1O` [ADENOSINE], the MNTC at 24 h [1] was 125 µM.

For `O=c1cc(-c2ccccc2F)[nH]c2ccccc12`, the MNTC at 24 h [1] was 5 µM.

Work on `O=C1NC(=O)C2N=CNC2N1` (centres undefined) yielded an MNTC at 24 h [1] of 9.3 µM.

`O=C(/C=C/c1ccccc1F)c1ccccc1O` showed an MNTC at 24 h [1] of 5.67 µM.

`O=C(/C=C\c1ccccc1)NCCO` showed an MNTC at 24 h [1] of 31.6 µM.

With `CC(=O)c1ccccc1NC(=O)c1ccc([N+](=O)[O-])cc1` the MNTC at 24 h [1] was 17.3 µM.

With `Oc1cc(/C=C/c2ccccc2)nc2ccccc12` the MNTC at 24 h [1] was 9.33 µM.

Work on `Nc1ncnc2nn[nH]c12` yielded an MNTC at 24 h [1] of 18.7 µM.

Compound `CCCCSCCNCCNP(=S)(OCC)OCC` has an MNTC at 24 h [1] of 32.3 µM and an IC50 [4] of 25 µM.

In the case of `CC(=O)c1ccccc1NC(=O)c1ccc(F)cc1`, the MNTC at 24 h [1] is reported as 10 µM.

Work on `Nc1ccncn1` yielded an MNTC at 24 h [1] of 250 µM.

`CCCSCCNCCNC(=O)c1ccc(Cl)cc1` showed an MNTC at 24 h [1] of 124 µM.

With `CC(=O)c1ccccc1NC(=O)/C=C\c1ccccc1` the inhibition [5] was “Active”, the CC50 at 24 h [1] was 29.7 µM and the MNTC at 24 h [1] was 6.96 µM. The inhibition [6] was “Active”, the inhibition [7] was “Active” and the inhibition [8] was “Active”. For the same compound, the Activity [2] was “Non-Toxic”.

Work on `Cc1ncnc2nc[nH]c12` yielded an MNTC at 24 h [1] of 9.3 µM.

In the case of `CC(=O)c1ccccc1NC(=O)c1ccccc1F`, the inhibition [5] is reported as “Active”, the CC50 at 24 h [1] is reported as 120 µM and the MNTC at 24 h [1] is reported as 37 µM. For the same compound, the inhibition [6] was “Active”, the inhibition [7] was “Active” and the inhibition [8] was “Active”. For the same compound, the Activity [2] was “Non-Toxic”.

`O=C(/C=C/c1ccccc1)Nc1ccccc1O` [N-(2-HYDROXYPHENYL)CINNAMAMIDE] showed an MNTC at 24 h [1] of 32 µM.

Compound `O=C1NCN=C2NC=NC12` (centres undefined) has an MNTC at 24 h [1] of 125 µM and a ΔTm [3] of 2.32 °C.

Compound `Cc1ccsc1-c1cc(=O)c2ccccc2[nH]1` has an MNTC at 24 h [1] of 5.33 µM.
